Assay results from patent US20060116316A1, “Heterocyclic inhibitors of IRES-mediated translation and methods of use thereof” (priority 2004, published 2006).
Where a SMILES comes first, the peptide text is derived from it.

Tested on: HCV IRES
Assay: HCV IRES reporter FACS assay (GFP expression ratio, intein-expressed cyclic peptides)
Format: cell-based, Hepatitis C virus
Conditions: ratio at least 1.20 = significant activity
Excerpt: [The source words this procedure for another variant and says it was used here with some conditions changed.] Cells producing libraries of cyclic 3-mers and 4-mers (i.e., libraries of cyclic peptides that contain 3 or 4 amino acid residues) were constructed using methods identical to those of Kinsella et al (J Biol. Chem. 2002 277:37512-8), except different oligonucleotides were used for library construction. Clones from this library were screened in an assay shown in FIG. 2 to identify IRES-inhibitory compounds.
In summary, separate cyclic 3-mer and cyclic 4-mer libraries were constructed such that each peptide of the library contained a fixed Ser, Thr or Cys residue (at position 1) and the remaining residues were randomized. For library construction, degenerate oligonucleotides of sequence 5′-[…](AGC/ACC/TGC)(NNK)2 or 3 TGCATCAGCGGCGACAG-3′ were annealed to the primer 5′-[…]-3′ and extended using the Expand PCR kit (Roche Molecular Biochemicals). The double-stranded DNA insert was digested and inserted into the BclI/DrdI sites of DnaBO-e-BFP (ACUC). The plasmid libraries were electroporated into ElectroMAX DH 10B competent E. coli (Invitrogen) for amplification on LB+amp agar medium. […] Expression of the intein is detected by detecting BFP expression. Expression of the intein (and the cyclic peptide produced by the intein) is suppressible by addition of exogenous doxycycline. The amino acid sequence of the junctions of the intein scaffold used in making the 3-mer library is Val-His-Asn-X3 or 4-Cys-Ile-Ser, where X3 or 4 are three or four contiguous amino acids.
Infectious retroviral particles were produced by transfection of 15 µg of each library (as described in Swift et al, (1999). Current Protocols in Immunology Vol. 10.17C, pp. 1-17, Freeman, N.Y.) into approximately 5×10^6 Phoenix-A packaging cells. Each resulting library of retroviral particles was then used to infect 5×10^6 BJAB-S3A11 reporter cells and a FACS based selection was carried out to isolate cells with reduced HCV-IRES reporter output.
In detail, referring to FIG. 2, the cells used in the assay contained an IRES-dependent reporter system. […]. Also present in the cells is a control reporter system for assaying the activity of 5′ cap-dependent translation (the mechanism by which most cellular proteins are normally translated). The control reporter system contains a CMV promoter that drives the transcription of an RNA containing 5′ cap-dependent UTR, operably linked to an RNA encoding RFP (red fluorescent protein). Translation of RFP is dependent on the activity of the 5′ cap-dependent UTR.
Cells containing both the cyclic compound library and the reporter systems described above were first screened for survival upon exposure to diptheria toxin, and then screened by FACS to identify cells that had reduced GFP expression, as compared to RFP expression. Cells were expanded and replica-plated and grown in the presence or absence of dox (100 ng/ml) for four days. Plates were stimulated with IL-4 and GFP expression (relative to RFP) was monitored by flow cytometry. The IRES-inhibitory activity of a peptide is evaluated by calculating the ratio of the geometric mean of GFP expression of peptide positive cells (“peptide pos+” cells i.e., cells not contacted with dox) to the geometric mean of GFP expression of peptide negative cells (“peptide pos−” cells i.e., cells contacted with dox).
Cyclic peptides assigned higher scores have a greater IRES-inhibitory activity.
The number shown in parentheses after each of the amino acid sequences is the IRES-inhibitory activity ratio, as discussed above.

[1] = 3-mers from mutant intein scaffold, junction Val-His-Tyr-X1X2X3-Cys-Ile-Ser
[2] = 3-mers from mutant intein scaffold, junction Val-His-Asn-X1X2X3-Trp-Ile-Ser
[3] = 4-mers from mutant intein scaffold, junction Val-His-Asn-X1X2X3X4-Cys-Ser
[4] = BJAB-S3A11 reporter cells, +/- dox 100 ng/ml four days, library intein junction Val-His-Asn-X1X2X3-Cys-Ile-Ser

Structure (SMILES) | IRES-inhibitory activity ratio (geometric mean GFP expression, peptide positive cells / peptide negative cells) [4] | further results
CC(C)[C@@H]1NC(=O)[C@H](C)NC(=O)[C@H](CO)NC1=O [cyclo-SAV, cyclo[SAV]] (cyclo(Ala-Val-Ser)) |  | IRES-inhibitory activity ratio (geometric mean GFP expression, peptide positive cells / peptide negative cells) [1]: 2.65
O=C1N[C@@H](Cc2cnc[nH]2)C(=O)N[C@@H](Cc2c[nH]c3ccccc23)C(=O)N[C@H]1CO [cyclo-SHW, cyclo[SHW]] (cyclo(His-Trp-Ser)) |  | IRES-inhibitory activity ratio (geometric mean GFP expression, peptide positive cells / peptide negative cells) [2]: 2.26
O=C1N[C@@H](CS)C(=O)N[C@@H](Cc2c[nH]c3ccccc23)C(=O)N[C@H]1CO [cyclo-SCW, cyclo[SCW]] (cyclo(Cys-Trp-Ser)) |  | IRES-inhibitory activity ratio (geometric mean GFP expression, peptide positive cells / peptide negative cells) [2]: 2.01
O=C1N[C@@H](CO)C(=O)N2CCC[C@H]2C(=O)N[C@H]1Cc1c[nH]c2ccccc12 [cyclo-SPW, cyclo[SPW]] (cyclo(Pro-Trp-Ser)) |  | IRES-inhibitory activity ratio (geometric mean GFP expression, peptide positive cells / peptide negative cells) [2]: 2.28
C[C@@H](O)[C@@H]1NC(=O)[C@H](CCCNC(=N)N)NC(=O)[C@H](Cc2ccccc2)NC(=O)[C@H](Cc2c[nH]c3ccccc23)NC1=O [cyclo-TWFR, cyclo[TWFR]] (cyclo(FRTW)) |  | IRES-inhibitory activity ratio (geometric mean GFP expression, peptide positive cells / peptide negative cells) [3]: 1.56
CC(C)C[C@@H]1NC(=O)[C@H]([C@@H](C)O)NC(=O)[C@H](Cc2c[nH]c3ccccc23)NC1=O [cyclo-TLW, cyclo[TLW]] (cyclo(Leu-Trp-Thr)) | 1.2 | 
C[C@@H](O)[C@@H]1NC(=O)[C@H](CO)NC(=O)[C@H](Cc2c[nH]c3ccccc23)NC1=O [cyclo-STW, cyclo[STW]] (cyclo(Ser-Thr-Trp)) |  | IRES-inhibitory activity ratio (geometric mean GFP expression, peptide positive cells / peptide negative cells) [2]: 2.12
CC(C)[C@@H]1NC(=O)[C@H](Cc2c[nH]c3ccccc23)NC(=O)[C@H](CO)NC1=O [cyclo-SWV, cyclo[SWV]] (cyclo(Ser-Trp-Val)) | 1.83 | 
N=C(N)NCCC[C@@H]1NC(=O)[C@H](Cc2ccc(O)cc2)NC(=O)[C@H](Cc2c[nH]c3ccccc23)NC(=O)[C@H](CO)NC1=O [cyclo-SWYR, cyclo[SWYR]] (cyclo(RSWY)) |  | IRES-inhibitory activity ratio (geometric mean GFP expression, peptide positive cells / peptide negative cells) [3]: 1.49
CCC(C)[C@@H]1NC(=O)[C@H](C(C)C)NC(=O)[C@H](CO)NC1=O (stereo partly drawn) [cyclo-SVI, cyclo[SVI]] | 1.28 | 
O=C1N[C@@H](Cc2c[nH]c3ccccc23)C(=O)N[C@@H](CO)C(=O)N[C@H]1CO [cyclo-SSW, cyclo[SSW]] (cyclo(Ser-Ser-Trp)) |  | IRES-inhibitory activity ratio (geometric mean GFP expression, peptide positive cells / peptide negative cells) [2]: 2.05
CC(C)[C@@H]1NC(=O)[C@H](CCCCN)NC(=O)[C@H](CO)NC1=O [cyclo-SKV, cyclo[SKV]] (cyclo(Lys-Val-Ser)) | 1.38 | 
NCCCC[C@@H]1NC(=O)[C@H](Cc2ccccc2)NC(=O)[C@H](Cc2c[nH]c3ccccc23)NC(=O)[C@H](CO)NC1=O [cyclo-SWFK, cyclo[SWFK]] (cyclo(FKSW)) |  | IRES-inhibitory activity ratio (geometric mean GFP expression, peptide positive cells / peptide negative cells) [3]: 1.58
CC(C)C[C@@H]1NC(=O)[C@H](CO)NC(=O)[C@H](Cc2c[nH]c3ccccc23)NC1=O [cyclo-SLW, cyclo[SLW]] (cyclo(Leu-Trp-Ser)) | 1.27 | 
CSCC[C@@H]1NC(=O)[C@H](Cc2ccccc2)NC(=O)[C@H](Cc2c[nH]c3ccccc23)NC(=O)[C@H](CO)NC1=O [cyclo-SWFM, cyclo[SWFM]] (cyclo(FMSW)) |  | IRES-inhibitory activity ratio (geometric mean GFP expression, peptide positive cells / peptide negative cells) [3]: 1.31
CC(C)[C@@H]1NC(=O)[C@H](CO)NC(=O)[C@H](Cc2c[nH]c3ccccc23)NC1=O [cyclo-SVW, cyclo[SVW]] (cyclo(Ser-Val-Trp)) | 1.3 | 
CSCC[C@@H]1NC(=O)[C@H](C)NC(=O)[C@H](CO)NC1=O [cyclo-SAM, cyclo[SAM]] (cyclo(Ala-Met-Ser)) |  | IRES-inhibitory activity ratio (geometric mean GFP expression, peptide positive cells / peptide negative cells) [1]: 1.36
CSCC[C@@H]1NC(=O)[C@H](CO)NC(=O)[C@H](C(C)C)NC1=O [cyclo-SMV, cyclo[SMV]] (cyclo(Met-Val-Ser)) | 1.36 | 
CC(C)[C@@H]1NC(=O)[C@H](Cc2ccc(O)cc2)NC(=O)[C@H](CO)NC1=O [cyclo-SYV, cyclo[SYV]] (cyclo(Ser-Tyr-Val)) | 1.4 | 
N=C(N)NCCC[C@@H]1NC(=O)[C@H](Cc2c[nH]c3ccccc23)NC(=O)[C@H](Cc2ccccc2)NC(=O)[C@H](CO)NC1=O [cyclo-SFWR, cyclo[SFWR]] (cyclo(FWRS)) |  | IRES-inhibitory activity ratio (geometric mean GFP expression, peptide positive cells / peptide negative cells) [3]: 1.49
O=C1N[C@@H](Cc2c[nH]c3ccccc23)C(=O)N[C@@H](Cc2ccc(O)cc2)C(=O)N[C@H]1CO [cyclo-SWY, cyclo[SWY]] (cyclo(Ser-Trp-Tyr)) | 1.38 | 
CC(C)[C@@H]1NC(=O)[C@H]([C@@H](C)O)NC(=O)[C@H](CO)NC1=O [cyclo-STV, cyclo[STV]] (cyclo(Ser-Thr-Val)) |  | IRES-inhibitory activity ratio (geometric mean GFP expression, peptide positive cells / peptide negative cells) [1]: 2.24
CSCC[C@@H]1NC(=O)[C@H]([C@@H](C)O)NC(=O)[C@H](Cc2c[nH]c3ccccc23)NC1=O [cyclo-TMW, cyclo[TMW]] (cyclo(Met-Trp-Thr)) | 2.1 | 
CCC(C)[C@@H]1NC(=O)[C@H](Cc2c[nH]c3ccccc23)NC(=O)[C@H](CO)NC1=O (stereo partly drawn) [cyclo-SWI, cyclo[SWI]] | 1.36 | 
CCC(C)[C@@H]1NC(=O)[C@H](CO)NC(=O)[C@H](Cc2c[nH]c3ccccc23)NC1=O (stereo partly drawn) [cyclo-SIW, cyclo[SIW]] | 1.36 | 
O=C1N[C@@H](Cc2ccccc2)C(=O)N[C@@H](Cc2c[nH]c3ccccc23)C(=O)N[C@H]1CO [cyclo-SFW, cyclo[SFW]] (cyclo(Phe-Trp-Ser)) | 1.55 | 
CC(C)[C@@H]1NC(=O)[C@H](C)NC(=O)[C@H]([C@@H](C)O)NC1=O [cyclo-TAV, cyclo[TAV]] (cyclo(Ala-Val-Thr)) |  | IRES-inhibitory activity ratio (geometric mean GFP expression, peptide positive cells / peptide negative cells) [1]: 2.00
CSCC[C@@H]1NC(=O)[C@H](CS)NC(=O)[C@H](Cc2c[nH]c3ccccc23)NC1=O [cyclo-CMW, cyclo[CMW]] (cyclo(Cys-Met-Trp)) | 1.29 | 
C[C@@H]1NC(=O)[C@H](CO)NC(=O)[C@H](Cc2c[nH]c3ccccc23)NC1=O [cyclo-SAW, cyclo[SAW]] (cyclo(Ala-Trp-Ser)) | 1.21 | 
O=C1N[C@@H](Cc2ccc(O)cc2)C(=O)N[C@@H](Cc2c[nH]c3ccccc23)C(=O)N[C@H]1CS [cyclo-CYW, cyclo[CYW]] (cyclo(Cys-Tyr-Trp)) | 1.3 | 
